# Measured values as given in patent US4305953A, “Synergistic fungicidal compositions” (priority 1979, dated 1981).
# Columns and labels:
# Erysiphe graminis [1] = assay: in vivo effect against powdery mildew on sprayed plants (Example 5, Table V); conditions: triadimefon 50 WP, benomyl 50 WP, 6 days after infection
# Description: (§1) The in vivo effect of various mixtures of triadimefon 50 WP and benomyl 50 WP was observed against powders mildew (Erysiphe graminis). The plants were grown in plots at 20° C., under a relative humidity of 98% for 7 days. The one-week old plant were then sprayed with the test composition and after drying were […] with Erysiphe graminis. After incubation for 6 days the results were evaluated.
# Erysiphe graminis [2] = assay: in vivo effect against powdery mildew on sprayed plants (Example 6, Table VI); conditions: fenapronil 25 EC, benomyl 50 WP, 6 days after infection
# Description: as §1
# The procedure described in Example 5 was used but fenapronil 25 EC and benomyl 50 WP were tested. The following results have been obtained.
# various fungi = assay: interaction / activity against various fungi in vitro, overall result in words; type: cell-based
# [3] = system: lipid and sterol synthesis; conditions: mode of action; cited from earlier work
# [4] = system: fungi which are sensitive to them; conditions: Fritz et al. 1977; cited from earlier work
# [5] = system: obligate parasites such as real powdery mildew, blight, rust; conditions: cited from earlier work
structure (smiles),measurement,setting,value
"CCCCNC(=O)n1c(NC(=O)OC)nc2ccccc21 [benomyl, methyl 1-(butylcarbamoyl)-2-benzimidazolecarbamate]",Extent of infection,Erysiphe graminis [1]; concentration 3%,32.2%
same,Extent of infection,Erysiphe graminis [1]; concentration 6%,23.3%
same,Extent of infection,Erysiphe graminis [1]; concentration 12%,16.3%
same,Extent of infection,Erysiphe graminis [2]; concentration 12 ppm,78%
same,Extent of infection,Erysiphe graminis [2]; concentration 25 ppm,64%
same,Extent of infection,Erysiphe graminis [2]; concentration 50 ppm,56%
"CCCCC(C#N)(Cn1ccnc1)c1ccccc1 (stereo not drawn) [fenapronil, 1H-α-butyl-α-phenylimidazol-1-yl-propanenitrile]",Extent of infection,Erysiphe graminis [2]; concentration 12 ppm,43%
same,Extent of infection,Erysiphe graminis [2]; concentration 25 ppm,23%
same,Extent of infection,Erysiphe graminis [2]; concentration 50 ppm,14%
same,activity alone,various fungi,extremely potent alone and has a wide field of activity
same,inhibition of lipid and sterol synthesis,[3],inhibiting lipid and sterol synthesis
"CC(C)NC(=O)N1CC(=O)N(c2cc(Cl)cc(Cl)c2)C1=O [promidion, 3-(3,5-dichlorophenyl)-2,4-dioxo-1-(N-isopropyl)-imidazolinecarboxamide]",accumulation of fatty acids and triglycerides,[4],induce an accumulation of fatty acids and triglycerides
"CC(C)(C)C(=O)C(Oc1ccc(Cl)cc1)n1cncn1 (stereo not shown) [triadimefon, 1-(4-chlorophenoxy)-3,3-dimethyl-1-(1H)-(1,2,4-triazol-1-yl)buthan-2-one]",Extent of infection,Erysiphe graminis [1]; concentration 3%,73.5%
same,Extent of infection,Erysiphe graminis [1]; concentration 6%,66.0%
same,Extent of infection,Erysiphe graminis [1]; concentration 12%,40.6%
same,activity alone,various fungi,entirely ineffective against the fungi tested in vitro
same,inhibition of lipid and sterol synthesis,[3],inhibiting lipid and sterol synthesis
same,activity against obligate parasites,[5],"effective against obligate parasites such as real powdery mildew, blight, rust"
"C=CC1(C)OC(=O)N(c2cc(Cl)cc(Cl)c2)C1=O (stereo not shown) [vinclosolin, 3-(3,5-dichlorophenyl)-5-methyl-5-vinyl-1,3-oxazolidine-2,4-dione]",accumulation of fatty acids and triglycerides,[4],induce an accumulation of fatty acids and triglycerides
